{
  "source": "ChEMBL document CHEMBL5465560",
  "about": "“Selectivity Literature for EUbOPEN Chemogenomic Library” (2024)",
  "key": {"[1]": {"biological_target": "AP2-associated protein kinase 1 (Homo sapiens, UniProt Q2M2I8)", "experiment": "Selectivity interaction (KinomeScan (DiscoverX)) EUB0000655a AAK1", "settings": "at 10 µM"}, "[2]": {"biological_target": "Fibroblast growth factor receptor 3 (Homo sapiens, UniProt P22607)", "sequence (P22607 23-806 limits assumed)": "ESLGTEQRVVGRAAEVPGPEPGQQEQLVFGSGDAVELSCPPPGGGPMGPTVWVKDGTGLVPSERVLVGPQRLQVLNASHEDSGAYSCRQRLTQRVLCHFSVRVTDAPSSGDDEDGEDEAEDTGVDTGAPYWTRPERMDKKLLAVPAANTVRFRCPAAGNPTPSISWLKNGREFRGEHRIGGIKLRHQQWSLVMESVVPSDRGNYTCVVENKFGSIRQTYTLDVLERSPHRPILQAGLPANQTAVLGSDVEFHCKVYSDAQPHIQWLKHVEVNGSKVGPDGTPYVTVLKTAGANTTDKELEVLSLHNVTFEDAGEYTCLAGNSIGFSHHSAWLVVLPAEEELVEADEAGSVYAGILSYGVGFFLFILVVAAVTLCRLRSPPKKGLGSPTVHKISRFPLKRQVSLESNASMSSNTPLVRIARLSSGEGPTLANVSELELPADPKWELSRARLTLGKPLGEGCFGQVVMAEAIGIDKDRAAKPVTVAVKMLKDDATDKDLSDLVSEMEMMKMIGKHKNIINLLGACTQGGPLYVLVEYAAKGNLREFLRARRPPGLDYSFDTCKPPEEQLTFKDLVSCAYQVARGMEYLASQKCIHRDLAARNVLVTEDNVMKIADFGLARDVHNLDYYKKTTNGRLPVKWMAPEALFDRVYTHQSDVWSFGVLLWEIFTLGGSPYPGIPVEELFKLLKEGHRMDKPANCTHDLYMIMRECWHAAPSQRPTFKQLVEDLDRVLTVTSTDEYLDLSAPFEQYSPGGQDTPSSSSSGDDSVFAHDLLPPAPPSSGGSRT", "experiment": "(§1) Selectivity interaction (KinomeScan (DiscoverX)) EUB0000655a FGFR3", "settings": "at 10 µM"}, "[3]": {"test_system": "Fibroblast growth factor receptor 3 (Homo sapiens), P22607 [G697C]", "experiment": "as §1", "settings": "at 10 µM"}, "[4]": {"biological_target": "T1, Serine/threonine-protein kinase ICK (Homo sapiens) (UniProt Q9UPZ9)", "T1 sequence (whole entry)": "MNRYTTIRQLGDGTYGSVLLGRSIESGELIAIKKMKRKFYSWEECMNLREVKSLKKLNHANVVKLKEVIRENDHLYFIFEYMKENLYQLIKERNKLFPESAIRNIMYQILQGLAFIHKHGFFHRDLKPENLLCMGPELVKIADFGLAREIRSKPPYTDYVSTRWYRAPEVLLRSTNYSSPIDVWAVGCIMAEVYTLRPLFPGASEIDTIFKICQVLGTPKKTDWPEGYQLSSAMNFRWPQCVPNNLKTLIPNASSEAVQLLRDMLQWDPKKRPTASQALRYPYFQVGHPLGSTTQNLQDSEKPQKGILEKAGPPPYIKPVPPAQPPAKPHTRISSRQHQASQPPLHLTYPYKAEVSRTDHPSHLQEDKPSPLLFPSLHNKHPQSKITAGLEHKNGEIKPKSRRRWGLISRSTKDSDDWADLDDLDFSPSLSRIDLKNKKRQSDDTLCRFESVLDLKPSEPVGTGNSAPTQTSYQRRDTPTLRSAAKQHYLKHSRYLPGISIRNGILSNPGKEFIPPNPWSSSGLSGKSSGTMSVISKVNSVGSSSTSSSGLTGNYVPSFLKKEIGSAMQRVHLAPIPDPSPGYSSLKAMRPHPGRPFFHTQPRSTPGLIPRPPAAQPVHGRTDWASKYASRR", "experiment": "Selectivity interaction (KinomeScan (DiscoverX)) EUB0000655a ICK", "settings": "at 10 µM"}, "[5]": {"biological_target": "T2, Serine/threonine-protein kinase TBK1 (Homo sapiens) (UniProt Q9UHD2)", "T2 sequence (whole entry)": "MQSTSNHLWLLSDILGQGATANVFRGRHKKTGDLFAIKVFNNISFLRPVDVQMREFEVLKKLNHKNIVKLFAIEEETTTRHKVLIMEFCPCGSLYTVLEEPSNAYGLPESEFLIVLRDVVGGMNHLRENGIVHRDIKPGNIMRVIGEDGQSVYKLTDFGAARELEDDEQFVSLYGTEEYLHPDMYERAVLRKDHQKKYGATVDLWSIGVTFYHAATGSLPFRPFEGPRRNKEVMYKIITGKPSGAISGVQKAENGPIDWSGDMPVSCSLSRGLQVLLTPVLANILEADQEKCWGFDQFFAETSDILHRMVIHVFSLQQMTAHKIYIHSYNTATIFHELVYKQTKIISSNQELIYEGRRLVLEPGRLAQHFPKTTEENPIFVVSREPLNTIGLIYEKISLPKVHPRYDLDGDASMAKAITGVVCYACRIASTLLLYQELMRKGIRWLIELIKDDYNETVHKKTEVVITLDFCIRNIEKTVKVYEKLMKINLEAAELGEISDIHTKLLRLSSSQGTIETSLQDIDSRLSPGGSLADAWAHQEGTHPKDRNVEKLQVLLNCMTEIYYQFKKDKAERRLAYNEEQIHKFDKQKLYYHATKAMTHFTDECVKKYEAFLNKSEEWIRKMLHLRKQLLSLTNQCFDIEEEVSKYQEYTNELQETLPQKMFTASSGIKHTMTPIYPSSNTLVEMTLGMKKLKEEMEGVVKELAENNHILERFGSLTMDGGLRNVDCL", "experiment": "Selectivity interaction (KinomeScan (DiscoverX)) EUB0001079a TBK1", "settings": "at 1 µM"}, "[6]": {"biological_target": "T3, Tyrosine-protein kinase JAK2 (Homo sapiens, UniProt O60674)", "T3 sequence (O60674 whole entry)": "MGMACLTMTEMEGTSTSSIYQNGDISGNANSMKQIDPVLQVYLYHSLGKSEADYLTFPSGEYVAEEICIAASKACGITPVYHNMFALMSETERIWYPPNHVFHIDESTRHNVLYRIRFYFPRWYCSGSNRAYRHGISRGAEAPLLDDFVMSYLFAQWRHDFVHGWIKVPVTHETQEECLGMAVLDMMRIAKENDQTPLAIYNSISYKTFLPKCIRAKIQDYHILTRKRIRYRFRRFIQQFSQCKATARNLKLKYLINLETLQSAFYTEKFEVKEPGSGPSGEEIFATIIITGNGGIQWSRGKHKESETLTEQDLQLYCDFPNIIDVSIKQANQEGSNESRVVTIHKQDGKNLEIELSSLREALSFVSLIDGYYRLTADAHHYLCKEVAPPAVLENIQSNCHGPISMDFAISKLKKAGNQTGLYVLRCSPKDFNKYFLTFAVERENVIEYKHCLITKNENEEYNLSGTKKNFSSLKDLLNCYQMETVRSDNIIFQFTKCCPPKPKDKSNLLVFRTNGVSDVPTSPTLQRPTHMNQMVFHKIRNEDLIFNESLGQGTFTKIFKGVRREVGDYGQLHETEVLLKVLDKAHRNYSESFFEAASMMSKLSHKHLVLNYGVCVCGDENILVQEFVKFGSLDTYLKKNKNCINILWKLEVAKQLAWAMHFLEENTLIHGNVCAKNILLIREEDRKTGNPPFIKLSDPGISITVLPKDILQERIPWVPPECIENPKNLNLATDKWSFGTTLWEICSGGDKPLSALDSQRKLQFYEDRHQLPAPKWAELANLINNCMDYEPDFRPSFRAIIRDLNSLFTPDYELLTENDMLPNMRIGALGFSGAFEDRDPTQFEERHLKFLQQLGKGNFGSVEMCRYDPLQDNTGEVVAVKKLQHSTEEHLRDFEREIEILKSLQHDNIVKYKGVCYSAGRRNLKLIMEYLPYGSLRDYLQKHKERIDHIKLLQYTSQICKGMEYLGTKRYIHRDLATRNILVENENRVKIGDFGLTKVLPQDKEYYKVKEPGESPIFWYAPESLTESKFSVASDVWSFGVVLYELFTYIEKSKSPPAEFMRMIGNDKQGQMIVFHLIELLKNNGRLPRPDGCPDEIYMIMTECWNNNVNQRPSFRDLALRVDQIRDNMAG", "experiment": "Selectivity interaction (Kinase panel (33PanQinase(R) Activity Assay)) EUB0000877a JAK2"}, "[7]": {"biological_target": "T3, Tyrosine-protein kinase JAK2", "experiment": "(§2) Selectivity interaction (Kinase panel (Z-LYTE Assay)) EUB0001632a JAK2", "settings": "at 10 µM"}, "[8]": {"test_system": "Tyrosine-protein kinase JAK2 (Homo sapiens), O60674 [V617F]", "sequence (O60674 whole entry V617F)": "as the sequence (O60674 whole entry) above, with V617F counted along it", "experiment": "as §2", "settings": "at 10 µM"}, "[9]": {"biological_target": "Proto-oncogene tyrosine-protein kinase ROS (Homo sapiens) (UniProt P08922)", "experiment": "Selectivity interaction (Kinase panel (Invitrogen)) EUB0000639a ROS1", "settings": "at 200 nM"}, "[10]": {"biological_target": "Mitogen-activated protein kinase kinase kinase kinase 4 (Homo sapiens, UniProt O95819)", "experiment": "Selectivity interaction (KinomeScan (DiscoverX)) EUB0000607a MAP4K4", "settings": "at 10 µM"}, "[11]": {"biological_target": "Serine/threonine-protein kinase N2 (Homo sapiens, UniProt Q16513)", "sequence (Q16513 whole entry, looked up)": "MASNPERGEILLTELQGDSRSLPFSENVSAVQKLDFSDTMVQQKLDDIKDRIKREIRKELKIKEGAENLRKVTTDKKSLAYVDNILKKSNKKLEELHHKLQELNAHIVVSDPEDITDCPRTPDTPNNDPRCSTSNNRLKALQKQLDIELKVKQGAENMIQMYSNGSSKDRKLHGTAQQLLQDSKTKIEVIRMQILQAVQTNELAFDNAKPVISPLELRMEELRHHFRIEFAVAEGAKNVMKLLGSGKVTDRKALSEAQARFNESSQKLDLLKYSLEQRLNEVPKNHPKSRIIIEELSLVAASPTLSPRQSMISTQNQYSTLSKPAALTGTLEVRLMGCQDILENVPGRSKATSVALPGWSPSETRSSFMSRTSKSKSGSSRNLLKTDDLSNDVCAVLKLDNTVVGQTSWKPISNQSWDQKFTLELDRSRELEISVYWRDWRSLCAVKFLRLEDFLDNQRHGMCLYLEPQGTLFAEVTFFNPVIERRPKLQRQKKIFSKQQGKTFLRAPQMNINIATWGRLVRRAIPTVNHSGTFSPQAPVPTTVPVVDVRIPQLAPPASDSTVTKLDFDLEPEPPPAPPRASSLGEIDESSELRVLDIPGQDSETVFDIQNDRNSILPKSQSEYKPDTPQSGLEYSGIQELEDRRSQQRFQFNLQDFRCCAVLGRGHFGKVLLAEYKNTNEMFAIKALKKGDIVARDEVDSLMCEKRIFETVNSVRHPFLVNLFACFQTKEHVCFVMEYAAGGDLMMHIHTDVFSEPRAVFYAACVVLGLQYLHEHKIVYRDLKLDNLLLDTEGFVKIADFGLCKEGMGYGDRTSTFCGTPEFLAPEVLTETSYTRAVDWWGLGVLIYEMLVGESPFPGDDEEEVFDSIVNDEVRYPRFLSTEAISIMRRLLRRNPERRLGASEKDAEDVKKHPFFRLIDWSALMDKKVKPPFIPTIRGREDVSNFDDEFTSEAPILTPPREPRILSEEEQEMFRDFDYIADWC", "experiment": "Selectivity interaction (KinomeScan (DiscoverX)) EUB0000607a PKN2", "settings": "at 10 µM"}, "[12]": {"test_system": "Tyrosine-protein kinase ABL1 (Homo sapiens), P00519 [Q252H]", "experiment": "Selectivity interaction (Ambit KINOMEscan and KiNATiv profiling in Jurkat cells) EUB0000090b ABL1", "format": "cell-based", "settings": "at 1 µM"}, "[13]": {"biological_target": "Cyclin-dependent kinase 15 (Homo sapiens) (UniProt Q96Q40)", "sequence (Q96Q40 whole entry)": "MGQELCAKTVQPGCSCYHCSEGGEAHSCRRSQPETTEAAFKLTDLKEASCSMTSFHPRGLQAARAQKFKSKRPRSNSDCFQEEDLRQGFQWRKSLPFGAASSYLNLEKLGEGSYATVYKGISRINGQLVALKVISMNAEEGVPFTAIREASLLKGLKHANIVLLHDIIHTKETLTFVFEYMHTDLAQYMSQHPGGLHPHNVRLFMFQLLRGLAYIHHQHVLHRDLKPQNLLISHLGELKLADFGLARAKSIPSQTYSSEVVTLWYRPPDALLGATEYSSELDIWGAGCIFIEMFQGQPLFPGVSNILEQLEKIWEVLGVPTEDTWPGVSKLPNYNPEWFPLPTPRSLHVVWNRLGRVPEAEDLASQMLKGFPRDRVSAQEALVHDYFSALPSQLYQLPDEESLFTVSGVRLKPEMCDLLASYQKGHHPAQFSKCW", "experiment": "Selectivity interaction (Ambit KINOMEscan and KiNATiv profiling in Jurkat cells) EUB0000090b CDK15", "format": "cell-based", "settings": "at 1 µM"}, "[14]": {"biological_target": "SRSF protein kinase 3 (Homo sapiens) (UniProt Q9UPE1)", "sequence (Q9UPE1 whole entry)": "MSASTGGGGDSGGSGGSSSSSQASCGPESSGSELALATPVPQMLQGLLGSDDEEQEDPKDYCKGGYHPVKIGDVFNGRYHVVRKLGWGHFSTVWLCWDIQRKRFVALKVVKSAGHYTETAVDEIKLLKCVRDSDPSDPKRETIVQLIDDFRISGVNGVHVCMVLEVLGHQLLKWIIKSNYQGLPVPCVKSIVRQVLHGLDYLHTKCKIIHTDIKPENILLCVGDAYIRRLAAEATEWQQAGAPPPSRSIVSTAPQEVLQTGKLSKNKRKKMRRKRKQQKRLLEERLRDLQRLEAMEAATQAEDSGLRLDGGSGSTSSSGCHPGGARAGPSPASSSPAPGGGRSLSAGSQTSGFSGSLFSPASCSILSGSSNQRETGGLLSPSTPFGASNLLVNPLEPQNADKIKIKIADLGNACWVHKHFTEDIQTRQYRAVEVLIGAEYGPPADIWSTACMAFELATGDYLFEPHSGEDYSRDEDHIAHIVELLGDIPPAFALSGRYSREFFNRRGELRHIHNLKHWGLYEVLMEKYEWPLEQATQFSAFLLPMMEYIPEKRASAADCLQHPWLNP", "experiment": "Selectivity interaction (Ambit KINOMEscan and KiNATiv profiling in Jurkat cells) EUB0000090b SRPK3", "format": "cell-based", "settings": "at 1 µM"}, "[15]": {"biological_target": "Serine/threonine-protein kinase MARK1 (Homo sapiens) (UniProt Q9P0L2)", "sequence (Q9P0L2 whole entry, looked up)": "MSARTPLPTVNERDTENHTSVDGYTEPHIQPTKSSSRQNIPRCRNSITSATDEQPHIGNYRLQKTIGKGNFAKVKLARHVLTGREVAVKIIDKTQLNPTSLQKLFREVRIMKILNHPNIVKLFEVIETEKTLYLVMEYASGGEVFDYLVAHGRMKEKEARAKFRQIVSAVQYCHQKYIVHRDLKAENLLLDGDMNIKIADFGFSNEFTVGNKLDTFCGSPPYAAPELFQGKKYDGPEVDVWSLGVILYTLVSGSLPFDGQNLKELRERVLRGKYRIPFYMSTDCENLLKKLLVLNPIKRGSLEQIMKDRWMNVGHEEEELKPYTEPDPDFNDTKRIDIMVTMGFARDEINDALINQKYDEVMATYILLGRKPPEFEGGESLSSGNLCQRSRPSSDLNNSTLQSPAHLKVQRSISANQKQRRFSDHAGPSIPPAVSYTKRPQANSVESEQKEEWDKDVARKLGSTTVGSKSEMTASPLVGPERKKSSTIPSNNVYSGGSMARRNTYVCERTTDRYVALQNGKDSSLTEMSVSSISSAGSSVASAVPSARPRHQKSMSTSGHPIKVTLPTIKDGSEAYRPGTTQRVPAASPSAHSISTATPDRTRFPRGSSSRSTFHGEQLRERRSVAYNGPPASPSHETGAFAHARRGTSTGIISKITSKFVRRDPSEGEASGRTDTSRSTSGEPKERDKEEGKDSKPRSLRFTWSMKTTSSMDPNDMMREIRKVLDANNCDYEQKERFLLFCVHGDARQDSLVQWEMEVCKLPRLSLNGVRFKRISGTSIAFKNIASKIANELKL", "experiment": "Selectivity interaction (Kinase screening (Nanosyn)) EUB0000604a MARK1"}, "[16]": {"biological_target": "T4, Histone-arginine methyltransferase CARM1 (Homo sapiens) (UniProt Q86X55)", "T4 sequence (whole entry)": "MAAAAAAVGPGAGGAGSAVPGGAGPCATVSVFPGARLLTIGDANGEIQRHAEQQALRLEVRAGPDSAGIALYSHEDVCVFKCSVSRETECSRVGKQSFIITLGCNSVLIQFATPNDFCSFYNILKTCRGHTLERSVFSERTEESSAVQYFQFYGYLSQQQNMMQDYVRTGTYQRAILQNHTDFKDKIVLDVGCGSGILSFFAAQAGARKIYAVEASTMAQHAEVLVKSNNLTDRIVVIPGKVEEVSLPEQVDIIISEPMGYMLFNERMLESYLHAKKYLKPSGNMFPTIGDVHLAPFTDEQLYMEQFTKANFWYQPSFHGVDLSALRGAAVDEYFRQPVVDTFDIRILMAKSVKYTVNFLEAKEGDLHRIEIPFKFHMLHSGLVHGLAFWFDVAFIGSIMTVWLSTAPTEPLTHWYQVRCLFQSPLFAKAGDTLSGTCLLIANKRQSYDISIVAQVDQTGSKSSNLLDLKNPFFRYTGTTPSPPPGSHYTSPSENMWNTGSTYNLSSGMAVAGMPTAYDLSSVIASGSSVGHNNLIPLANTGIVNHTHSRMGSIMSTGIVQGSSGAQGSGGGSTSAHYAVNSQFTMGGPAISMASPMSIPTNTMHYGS", "settings": "KMS-11, at 3 µM"}},
  "data": [
    {"compound": "CN(C)CCOc1ccc(-c2nc(-c3ccncc3)c(-c3ccc4c(c3)CC/C4=N\\O)[nH]2)cc1", "values": [
      {"measurement": "% of control", "setting": "[1]", "value": 76, "unit": "%"},
      {"measurement": "% of control", "setting": "[2]", "value": 100, "unit": "%"},
      {"measurement": "% of control", "setting": "[3]", "value": 100, "unit": "%"},
      {"measurement": "% of control", "setting": "[4]", "value": 100, "unit": "%"}
    ]},
    {"compound": "Nc1cnc(N2CCc3cc(S(=O)(=O)Nc4c(F)cc(Cl)cc4F)cc(N4CCCC4=O)c32)nc1", "note": "[TP-020n]", "values": [
      {"measurement": "% of control", "setting": "[5]", "value": 85, "unit": "%"}
    ]},
    {"compound": "CCC(=O)N1CC[C@H](Nc2ncnc3c2CN(c2cnc(OC)c(C(F)(F)F)c2)CC3)C1", "note": "[LENIOLISIB]", "values": [
      {"measurement": "IC50", "setting": "[6]", "value": "> 10", "unit": "µM"}
    ]},
    {"compound": "Cn1cc(-n2cnc3c(NCc4nc5cc(Cl)c(Cl)cc5[nH]4)nc(N4CCOCC4)nc32)cn1", "values": [
      {"measurement": "% of control", "setting": "[7]", "value": -3.18, "unit": "%"},
      {"measurement": "% of control", "setting": "[8]", "value": -2.15, "unit": "%"}
    ]},
    {"compound": "CC[C@@H]1[C@H](F)C(=O)N[C@@H]1COc1nccc2cc(C(N)=O)c(OC)cc12", "note": "[ZIMLOVISERTIB]", "values": [
      {"measurement": "% of inhibition", "setting": "[9]", "value": 18.1, "unit": "%"}
    ]},
    {"compound": "CNC(=O)Nc1ccc(-c2nc(N3CC4CCC(C3)O4)c3cnn(C4CCC5(CC4)OCCO5)c3n2)cc1", "values": [
      {"measurement": "% of control", "setting": "[10]", "value": 85, "unit": "%"},
      {"measurement": "% of control", "setting": "[11]", "value": 83, "unit": "%"}
    ]},
    {"compound": "CN(C)C/C=C/C(=O)Nc1ccc(C(=O)N2CCCC(Nc3ncc(Cl)c(-c4c[nH]c5ccccc45)n3)C2)cc1", "note": "(stereo unspecified)", "values": [
      {"measurement": "% of control", "setting": "[12]", "value": 100, "unit": "%"},
      {"measurement": "% of control", "setting": "[13]", "value": 73, "unit": "%"},
      {"measurement": "% of control", "setting": "[14]", "value": 93, "unit": "%"}
    ]},
    {"compound": "Cc1cnc(Nc2ccc(F)cc2Cl)nc1-c1c[nH]c(C(=O)N[C@H](CO)c2cccc(Cl)c2)c1", "values": [
      {"measurement": "% of inhibition", "setting": "[15]", "value": 12, "unit": "%"}
    ]},
    {"compound": "CNCCN1CCC(c2cc(CN(C)C(=O)c3cccc(Oc4ccccc4)c3)ccn2)CC1", "values": [
      {"measurement": "% of growth rate", "setting": "[16]", "value": -17.2, "unit": "%"}
    ]}
  ]
}
